Laboratory results published in the supplement of paper PMC6045584.

compound: COc1ccc(C2=N[C@@H](c3ccc(Cl)cc3)[C@@H](c3ccc(Cl)cc3)N2C(=O)N2CCNC(=O)C2)c(OC(C)C)c1 [NUTLIN3]; test: area under dose-response curve of surviving fraction (unscaled, Aref=0) (surviving fraction x log10(nM)); higher = more resistant; conditions: exposure time: 5 days; dose range 0.5-1000 nM
How it was run: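 Inhibitor was applied to tumour cell lines at eight concentrations (0.5 to 1000 nM) for five days in 384-well plates. Luminescence from CellTiter-Glo, scaled to DMSO-only wells, gave surviving fractions in three screens per line, and these were fitted by 3-parameter logistic regression with the drc R package. The area under the curve is an unscaled activity area. Aref was 0, and dose was on a log10 scale.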

Compared with 22RV1 PROSTATE, 93VU HEADNECK is higher in “area under dose-response curve” value: 3.26 for the first, 3.56 for the second.

Going from 143B BONE to A549 LUNG, the “area under dose-response curve” value falls from 3.5 to 3.26.

First: BT20 BREAST
Second: BT549 BREAST
The “area under dose-response curve” value of the first is lower: 3.59 for the first, 3.68 for the second.

Compared with C33A CERVIX, CADOES1 SOFT TISSUE is lower in “area under dose-response curve” value: 3.13 for the first, 2.81 for the second.

First: CAL51 BREAST
Second: CAL72 BONE
The “area under dose-response curve” value of the first is lower: 3.17 for the first, 3.61 for the second.

Compared with CAL120 BREAST, CASKI CERVIX is higher in “area under dose-response curve” value: 3.14 for the first, 3.23 for the second.

First: CHLA90 AUTONOMIC GANGLIA
Second: CME SYNOVIAL
The “area under dose-response curve” value of the first is lower: 3.33 for the first, 4.32 for the second.

Going from COLO320DM LARGE INTESTINE to DU4475 BREAST, the “area under dose-response curve” value falls from 4.13 to 3.2.

Going from H23 LUNG to HCC78 LUNG, the “area under dose-response curve” value falls from 3.42 to 3.02.

Going from HCC202 BREAST to HCC1395 BREAST, the “area under dose-response curve” value falls from 3.88 to 3.79.

Compared with HCC1806 BREAST, HCC1954 BREAST is higher in “area under dose-response curve” value: 3.55 for the first, 3.64 for the second.

HCT15 LARGE INTESTINE and HELA CERVIX are the same in “area under dose-response curve” value: 3.38 for the first, 3.38 for the second.

Compared with HOS BONE, HOSMNG BONE is higher in “area under dose-response curve” value: 3.43 for the first, 3.48 for the second.

Compared with HSSYII SYNOVIAL, HT1080 SOFT TISSUE is higher in “area under dose-response curve” value: 2.98 for the first, 3.11 for the second.

First: HU09 BONE
Second: HUO3N1 BONE
The “area under dose-response curve” value of the first is lower: 3.4 for the first, 3.41 for the second.

Going from JIMT1 BREAST to “JURKAT HAEMATOPOIETIC AND LYMPHOID TISSUE”, the “area under dose-response curve” value rises from 3.38 to 3.49.

Compared with KPD BONE, LM7 BONE is higher in “area under dose-response curve” value: 3.29 for the first, 3.39 for the second.

Compared with LNCAP PROSTATE, MCF7 BREAST is higher in “area under dose-response curve” value: 2.82 for the first, 2.87 for the second.

First: MDAMB134 BREAST
Second: MDAMB157 BREAST
The “area under dose-response curve” value of the first is lower: 3.16 for the first, 3.22 for the second.

Compared with MDAMB231 BREAST, MDAMB361 BREAST is lower in “area under dose-response curve” value: 3.31 for the first, 2.83 for the second.

Compared with MDAMB436 BREAST, MDAMB453 BREAST is higher in “area under dose-response curve” value: 2.99 for the first, 3.54 for the second.

First: MDAMB468 BREAST
Second: MFM223 BREAST
The “area under dose-response curve” value of the first is lower: 3.39 for the first, 3.57 for the second.

First: MG63 BONE
Second: MHM BONE
The “area under dose-response curve” value of the first is higher: 3.4 for the first, 3.28 for the second.

Compared with NCIH441 LUNG, NOS1 BONE is higher in “area under dose-response curve” value: 3.56 for the first, 3.66 for the second.

Compared with NY BONE, OS25HAL BONE is higher in “area under dose-response curve” value: 3.28 for the first, 3.29 for the second.

First: OSHN BONE
Second: PCI30 HEADNECK
The “area under dose-response curve” value of the first is higher: 3.52 for the first, 3.44 for the second.

Going from RDES SOFT TISSUE to S68 BREAST, the “area under dose-response curve” value falls from 3.98 to 3.12.

Going from SAOS2 BONE to SCC003 HEADNECK, the “area under dose-response curve” value falls from 3.66 to 3.48.

Going from SCC36 HEADNECK to SCC47 HEADNECK, the “area under dose-response curve” value rises from 3.65 to 3.66.

First: SCC90 HEADNECK
Second: SG28 HEADNECK
The “area under dose-response curve” value of the first is higher: 3.5 for the first, 3.29 for the second.

Compared with SG31 HEADNECK, SG32 HEADNECK is higher in “area under dose-response curve” value: 3.23 for the first, 3.75 for the second.

First: SG43 HEADNECK
Second: SIHA CERVIX
The “area under dose-response curve” value of the first is lower: 2.8 for the first, 3.54 for the second.

Going from SJSA1 BONE to SKBR3 BREAST, the “area under dose-response curve” value falls from 3.18 to 2.96.

Compared with SNU475 LIVER, SUM44 BREAST is lower in “area under dose-response curve” value: 3.32 for the first, 3.26 for the second.

Going from SUM149 BREAST to SUM149.B1*.S BREAST, the “area under dose-response curve” value falls from 3.63 to 3.61.

Compared with SUM159 BREAST, SYO1 SYNOVIAL is lower in “area under dose-response curve” value: 3.27 for the first, 2.9 for the second.

Compared with T47D BREAST, U2OS BONE is lower in “area under dose-response curve” value: 3.35 for the first, 3.28 for the second.

Compared with VCAP PROSTATE, VP229 BREAST is lower in “area under dose-response curve” value: 3.78 for the first, 3.5 for the second.

In the case of YAMATO SYNOVIAL, the “area under dose-response curve” value is reported as 4.58.
